Drawing on patent US6416775B1, “Dry spreadable carrier for pesticides” (priority 1996, dated 2002), this text covers weight loss for one molecule.

The nature of the data set: Volatile materials in ventilating oven. The conditions noted are these: after 2 hours at 141° F. (=60.5° C.) in a ventilating oven. It is filed as physicochemical. As to the method:
The moisture content of raw material Celite 500 is 3.7 weight percent. So, the weight of raw material Celite 500 is close to the dry weight of Celite 500. According to the product specifications of Supragil MNS/90, Soprophor S/40-P, and Supragil WP, the moisture contents of these components are no higher than 2 weight percent. Also, samples of chlorpyrifos technical were tested for volatile materials in a ventilating oven. The weight loss after 2 hours at 141° F. (=60.5° C.) was only 0.6 weight percent. […] Therefore, the dry spreadable granular product as manufactured above contains approximately 2.0 weight percent chlorpyrifos.

`CCOP(=S)(OCC)Oc1nc(Cl)c(Cl)cc1Cl` [Chlorpyrifos]: the weight loss came out at 0.6 weight percent.
